Results taken from patent US12133838B2, “Homotaurine-enriched compositions and methods of use for animal health” (FB Maria srl, priority 2015, dated 2024).

How the values were obtained:
[1] = tested on: young adult dogs; test: cognitive learning test in a maze, young adult dogs; type: in vivo, dog; conditions: young dogs (under 6 years of age), homotaurine 1 g/subject PO SID
Description: (§1) The experiment began by selecting two groups of elderly dogs (age more than 10 years, 16 subjects per group) and two groups of young adult dogs (between 3 and 6 years of age, 6 subjects per group), who were divided randomly balancing them per age, seniority, and size. The dogs underwent a cognitive learning tests (Spatial reversal learning is impaired by aging in pet dogs, P. Mongillo et al., Age, 2013, 35 (6): 2273-2282), in a simple maze built to this trial. Passing the test consisted in the dog's ability to learn to get out of the labyrinth in the direction that he himself had chosen in the first successful attempt. The number of attempts has been the test score: the lower the number of attempts, better cognitive performance. Immediately after the test, two groups of dogs (one old and one young) started to receive food integration of homotaurine capsules. Homotaurine at was administered orally once daily (PO SID) at a dose of 1 g/subject. After 4 months of homotaurine supplementation, initial learning test was repeated, with the same modalities of the initial test.

[2] = tested on: elderly dogs; test: cognitive learning test in a maze, elderly dogs; type: in vivo, dog; conditions: for Average number of wrong tries of the aged dogs able to pass the learning test (average score) / Percentage of the aged dogs able to pass the learning test: dogs more than 10 years
Description: as §1, with “After 15 days the dogs underwent a memory test (learning result application of first test) and, if they have passed the test, to a subsequent reverse learning test, which consisted in learning to exit the labyrinth from the opposite direction to that previously learned within a defined number of trials. After” for “After”, “test. The first evaluable results regarding the comparison between the cognitive learning tests, carried out on two groups of dogs over 10 years of age, a period in which aging-correlated brain behavior changes can be observed.” for “test.”

[3] = 1° test, before start of homotaurine
[4] = 2° test, after 4 months of homotaurine 1 g/subject PO SID

NCCCS(=O)(=O)O [homotaurine, 3-amino-1-propanesulfonic acid]
change of average score [1]: −2.6
Average number of wrong tries of the aged dogs able to pass the learning test (average score) [2, 3]: 6.67
Percentage of the aged dogs able to pass the learning test [2, 3]: 75%
Average number of wrong tries of the aged dogs able to pass the learning test (average score) [2, 4]: 5.67
Percentage of the aged dogs able to pass the learning test [2, 4]: 75%
change of average score, second versus first test ([2]; aged dogs, about four months of homotaurine 1 g/subject PO SID): −1.0
failures in the learning test ([2]; first test, before start of homotaurine, aged dogs): 25%
failures in the learning test ([2]; second test, about four months later, 1 g/subject PO SID, aged dogs): 25%
